Holding throughout (assay type): cell-based, human
Assay [1] concerns caspase 3 in SKI-DLCL-1 cells. The assay is described as follows: Caspase 3 activation (EnzChek Caspase-3 Assay Kit #2, Z-DEVD-R110 cleavage).
Method: Ara-C, PDX and Gem in combined and scheduled exposures.
To further evaluate the activity of PDX and Gem combinations, Caspase activity was tested by EnzChek® Caspase-3 Assay Kit #2 (Molecular Probes) based upon the fluorometric detection of caspase-dependent Z-DEVD-R110 cleavage (rhodamine 110 bis-[N-CBZ-L-aspartyl-L-glutamyl-L-valyl-L-aspartic acid amide], a non-fluorescent bisamide), which, via a two step process, first yields the monoamide product (weakly fluorescent) and then the fluorescent product R110 (rhodamine 110, strongly fluorescent). Detection was performed on a Fluoroskan Ascent FL fluorescent plate reader (Thermo Lab Systems, Helsinki, Finland) according to the manufacturer's guidelines.
For assay [2], the system named is SKI-DLCL-1 (Diffuse large B Cell) cell line. In words: Growth inhibition in vitro (XTT or Alamar blue). How it is done:
A PDX preparation prepared in accordance with Example 1 and an MTX preparation were tested for cytotoxicity against a panel of five human lymphoma cell lines. Experiments were performed as described previously. (Sirotnak et al., Cancer Chemother. […] Colorimetric dye (XTT or Alamar blue) was added for an addition period of time (XTT dye, 6 hours, Alamar blue, 24 hours). Each plate was then read on an automated plate reader at 590 nm. The percentage of inhibition was calculated as growth of cells exposed to drug divided by growth of controls (cells incubated with media only). […] Experiments were repeated as lest three times.
In general terms: Tetrazolium assays rely on reduction of a dye to a coloured formazan, in cell work by metabolically active cells.

For assay [3], the system named is SKI-DLCL-1 lymphoma cells. In words: Trypan Blue Exclusion cytotoxicity assay of single agents and combinations. The note with it: MTX 10 nM, PDX 1 nM, Ara-C 40 nM, Gem 10 nM, control = 1. An excerpt:
As set forth in greater detail in the examples herein, combination therapy using PDX and gemcitabine has been tested in vitro and in in vivo model systems for efficacy against lymphoma. Table 1 sets forth data obtained in a cytotoxicity assay (Example 2) using SKI-DLCL-1 lymphoma cells. SKI-DLCL-1 is a diffuse large b cell lymphoma (DLBCL) cell line that is particularly resistant to PDX.
In Table 1, the additive effect is in each case the % of control for the single agents multiplied together. The expected additive effect for PDX+Gem is better than for MTX and ara-C, because the agents are individually better. What is observed for both MTX/AraC combinations and PDX/Gem combinations is that the actual result is better than the predicted additive result. The extent of this synergism is quantified in Table 1 as (actual-additive)/additive so that the amount of reduction that occurs through the use of the combination is expressed as a percentage of the expected additive benefit.
To evaluate cytotoxicity of combination of PDX and GEM, a Trypan Blue Exclusion Assay was performed by aliquoting 5×10^5 SKI-DLBCL cells into each well of a 24 well plate with a final volume of 1 milliliter. Each drug was added in duplicate to the plate wells as follows: alone (MTX 10 nM, PDX 1 nM, Ara-C 40 nM, or Gem 10 nM), PDX+Gem or MTX+Ara-C for 48 h (hours). For the scheduled administration of drug, PDX or MTX alone were dispensed in additional duplicate wells. After 24 hours Gem and Ara-C were added to these wells, respectively, and incubated for 48 hours. At the end of incubation, 20 l of each cell culture was added to 20 l of trypan blue, after which […] was added to a hemocytometer (Hausser Scientific, Horsham, Pa.), where viable cells were counted based upon the presence (dead cells) or exclusion (live cells) of dye.

Here are results for one compound from US7939530B2, “Treatment of lymphoma using 10-propargyl-10-deazaaminopterin and gemcitabine” (Sloan-Kettering Institute for Cancer Research, priority 2004, dated 2011).

A word on the IC50: it is the concentration that gives 50% inhibition. A low value points to greater potency.

Regarding `C#CCC(Cc1cnc2nc(N)nc(N)c2n1)c1ccc(C(=O)N[C@@H](CCC(=O)O)C(=O)O)cc1` (some centres unmarked) [PDX, 10-Propargyl-10-deazaminopterin], in assay [1] (1 nM, control 134.3), the “Fluorescence at 485ex/527em” value came to 265.5. In assay [1] (fluorescence at 485ex/527em), the Difference from control is on record as 131.2. This compound yielded a half-inhibitory concentration (IC50) in assay [2] (SKI-DLCL-1, 5 day continuous drug exposure) of 5.1 ± 0.1 nM. In assay [2] (roughly, fold greater), the “EC50 in SKI-DLCL-1 relative to other B-cell lymphoma cell lines” value is 2 to 3 fold. Besides, the fraction of control in assay [3] is given as 0.84.
